For 13 compounds, TGI and GI50 results are on record in PubChem BioAssay (NCI).

Common to all, as to experiment: DTP human tumour cell line panel, 48 h
Experiment [1] concerns M14 melanoma.
Experiment [2] has as its system MALME-3M melanoma.
Experiment [3] relates to SF-268 CNS.
Experiment [4] has as its system SF-539 CNS.
Experiment [5] has as its system SN12C renal.
The subject of experiment [6] is HT29 colon.
The test system of experiment [7] is A498 renal.
For experiment [8], the system named is KM12 colon.
The subject of experiment [9] is SR leukemia.
Experiment [10] concerns HOP-62 NSCLC.

Where “and” joins values, the source holds several entries; their conditions need not be identical. Identical values can stand only once.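 The compound was tested at five concentrations on cells cultured in 96-well plates, with a 48-hour exposure period. Here, GI50 denotes the concentration required for 50% inhibition of growth. The concentration for full growth arrest is given as TGI.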

For `CC(C)(C)OC(=O)N1C[C@H](CC(=O)OCc2ccccc2)C[C@H]1C(=O)OCC(Cl)(Cl)Cl`, the total growth inhibition concentration (TGI) in experiment [1] was over 50 µM; in experiment [2], 25.3 µM; in experiment [3], over 50 µM; in [4], over 50 µM; in experiment [5], over 50 µM; in experiment [6] it was over 50 µM. Moreover, the concentration for total growth inhibition (TGI) was 25.9 µM in experiment [7], over 50 µM in experiment [8], 15.7 µM in [9] and over 50 µM in [10].

With `O=CC(O)C(O)C(O)COc1cc(CO)cc2c1C(=O)c1ccccc1C2=O` (configuration not stated), the concentration for total growth inhibition (TGI) in [1], in experiment [2], in experiment [3], in [4], in [5] and in [6] was over 100 µM throughout. The TGI in [7], in experiment [8], in [9] and in [10] was over 100 µM throughout.

With `COc1ccc(Cc2nc3cc(Cl)ccc3o2)cc1`, the concentration for total growth inhibition (TGI) in [1], in [2], in experiment [3], in [4], in experiment [5] and in experiment [6] was over 100 µM each time. Also, the TGI in [8], in experiment [9] and in [10] was over 100 µM each time.

Regarding `CC(C)(C)c1ccc(O)c(Br)c1`, the TGI in [1], in experiment [2], in experiment [3], in experiment [4], in experiment [5] and in experiment [6] was over 100 µM throughout. Besides, the total growth inhibition concentration (TGI) in experiment [7], in experiment [8], in experiment [9] and in experiment [10] was over 100 µM each time.

For `NCCCCN`, the total growth inhibition concentration (TGI) in experiment [1], in experiment [2], in experiment [3], in [4], in experiment [6] and in experiment [7] was over 100 µM in each case. Moreover, the TGI in experiment [8] was 38.6 µM; in [9], over 100 µM; in experiment [10], over 100 µM.

With `C/C(=C\CNc1ncnc2nc(Cl)[nH]c12)CO`, the TGI in experiment [1], in [2], in experiment [3], in experiment [4], in experiment [5] and in experiment [6] was over 100 µM in each case. In addition, the TGI in experiment [7], in experiment [8], in experiment [9] and in experiment [10] was over 100 µM throughout.

For `C=C1CCCC(C)(C)[C@@H]1CC/C(C)=C/Cn1c2cccc(=O)c-2nc2ccccc21`, the GI50 is 5.76 µM in [2]; 3.01 µM in experiment [4]; 5.57 µM in experiment [5]; 3.82 µM in experiment [6]; 7.76 µM in [7]; 7.96 µM in experiment [8]. The total growth inhibition concentration (TGI) in [2] was over 100 µM; in experiment [3] it was 3.71 µM; in experiment [4], 9.57 µM and 3.55 µM; in experiment [6], 27.4 µM and 3.29 µM; in experiment [7], 70.2 µM and 14.1 µM; in [8] it was 45.4 µM and 10.4 µM. In [10], the TGI stood at 9.37 µM.

For the compound `C[C@H](Nc1ccc(C#N)n(C)c1=O)c1cc2cc(Cl)ccc2[nH]c1=O`, the GI50 in [1] was 23.7 µM; in experiment [2], 25.3 µM; in experiment [3], 22.7 µM; in [4], 40.2 µM; in experiment [5], 26.7 µM; in experiment [6], 33.1 µM. The GI50 in experiment [7] is 20.4 µM; in experiment [8], 38.3 µM; in experiment [9] it was 27.7 µM; in [10], 25.7 µM. The concentration for total growth inhibition (TGI) in experiment [1], in [2], in experiment [3], in [4], in experiment [5] and in experiment [6] was over 100 µM in each case. In addition, the TGI in experiment [7] is 92.2 µM; in experiment [8], over 100 µM; in [9] it was over 100 µM; in experiment [10], over 100 µM.

Regarding `NC(N)=NS(=O)(=O)c1ccc(Nc2c3ccccc3nc3c(C(=O)N4CCN(CCO)CC4)ccc(Cl)c23)cc1`, the TGI in experiment [1], in experiment [2], in [3], in experiment [4], in [5] and in experiment [6] was over 100 µM in each case. Besides, the TGI in [7], in experiment [8] and in experiment [10] was over 100 µM throughout.

Turning to `Clc1ccc(NCc2nnc(COc3ccc(OCc4nnc(CNc5ccc(Cl)cc5)o4)c(Cl)c3)o2)cc1`, the total growth inhibition concentration (TGI) is over 100 µM in experiment [1]; over 100 µM in [2]; over 100 µM in [3]; over 100 µM in experiment [5]; 95.6 µM in [6]; over 100 µM in experiment [7]. Also, the results for the TGI in experiment [8], in [9] and in experiment [10] were over 100 µM, 13.6 µM and over 100 µM, respectively.

Regarding `O=P(O)(O)OP(=O)(O)O`, the concentration for total growth inhibition (TGI) in experiment [1], in experiment [2], in [3], in [4], in [5] and in experiment [6] was over 100 µM each time. The total growth inhibition concentration (TGI) in experiment [7], in [8], in [9] and in [10] was over 100 µM throughout.

Consider `CCN(CC)/[N+]([O-])=N/OC`, for which the total growth inhibition concentration (TGI) in experiment [1], in [3], in experiment [4], in [5], in experiment [6] and in [7] was over 100 µM throughout. Moreover, the total growth inhibition concentration (TGI) in experiment [8], in experiment [9] and in experiment [10] was over 100 µM each time.

`CC(Br)C(=O)c1ccc2cc(Br)c3ccccc3c2c1` (configuration not stated): the TGI was 31 µM in experiment [1]; 28.8 µM in [2]; 32.4 µM in experiment [3]; 23.3 µM in experiment [5]; 31.8 µM in experiment [6]; 33.1 µM in experiment [7]. The concentration for total growth inhibition (TGI) was determined as 32.5 µM in [8], 21.2 µM in experiment [9] and 32.4 µM in experiment [10].
